# Data reported in Sander's compilation of Henry's law constants (doi:10.1016/s1387-3806(02)00927-2).
# Assay: Henry solubility constant Hcp at 295 K (mol/(m3 Pa))
# Details: reference: Karl et al. (2003)
row,Compound,Henry solubility constant Hcp at 295 K
1,"Cc1cc(C)cc(C)c1 [1,3,5-trimethylbenzene]",0.002
2,"Cc1cccc(C)c1 [1,3-dimethylbenzene]",0.0013
3,"CC1=CC=C(C(C)C)CC1 [1-methyl-4-(1-methylethyl)-1,3-cyclohexadiene]",0.00045
4,c1ccccc1 [benzene],0.0018
5,Cc1ccccc1 [methylbenzene],0.0014
6,CCCc1ccccc1 [propylbenzene],0.0015

# Assay: Henry solubility constant Hcp at 291 K (mol/(m3 Pa))
# Details: reference: Karl et al. (2003)
row,Compound,Henry solubility constant Hcp at 291 K
1,"C=CC(=C)C [2-methyl-1,3-butadiene]",0.00029

# Assay: Henry solubility constant Hcp at 298.15 K (mol/(m3 Pa))
# Details: reference: Karl et al. (2003)
row,Henry solubility constant Hcp,Compound
1,4.9,CCc1cccc(O)c1 [1-hydroxy-3-ethylbenzene]
2,0.17,COc1nccnc1CC(C)C [2-isobutyl-3-methoxypyrazine]
3,0.14,CCC/C=C/C=O [(E)-2-hexenal]
4,0.033,CC/C=C/CCOC(C)=O [(E)-3-hexenyl ethanoate]
5,0.031,CC/C=C\CCOC(C)=O [(Z)-3-hexenyl ethanoate]
6,0.015,CCCCCCOC(C)=O [hexyl ethanoate]
